The experiment deals with T1, TbQSOX (Trypanosoma brucei, UniProt Q585M6).
T1 sequence (Q585M6 20-485): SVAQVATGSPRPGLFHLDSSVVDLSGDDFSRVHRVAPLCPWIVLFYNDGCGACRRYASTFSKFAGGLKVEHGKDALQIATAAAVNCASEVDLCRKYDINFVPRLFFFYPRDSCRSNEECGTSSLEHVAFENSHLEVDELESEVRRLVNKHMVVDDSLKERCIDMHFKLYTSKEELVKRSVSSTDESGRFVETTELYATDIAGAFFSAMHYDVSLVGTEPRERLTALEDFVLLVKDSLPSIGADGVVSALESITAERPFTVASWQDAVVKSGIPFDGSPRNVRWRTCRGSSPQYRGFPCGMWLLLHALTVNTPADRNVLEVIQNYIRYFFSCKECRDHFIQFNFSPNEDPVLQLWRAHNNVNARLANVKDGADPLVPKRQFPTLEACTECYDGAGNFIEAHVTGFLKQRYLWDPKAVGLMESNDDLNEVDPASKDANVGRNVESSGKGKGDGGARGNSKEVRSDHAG
The experiment can be described thus: UV/Vis spectrum of bound flavin in purified protein. To be noted: 50 mM phosphate pH 7.5, 1 mM EDTA; prosthetic group in Erv/ALR domain. It is filed as binding.

Turning to `Cc1cc2nc3c(=O)[nH]c(=O)nc-3n(C[C@H](O)[C@H](O)[C@H](O)COP(=O)(O)OP(=O)(O)OC[C@H]3O[C@@H](n4cnc5c(N)ncnc54)[C@H](O)[C@@H]3O)c2cc1C` [FAD], the “UV/Vis spectrum of bound flavin in purified protein” value is recorded as “found to be a stable, monomeric, FAD-containing protein”.

The values above are taken from paper PMC2831140 (Biochemistry, 2010).
